The text below walks through data of US4434162A, “Phosphonic acid ester, pharmaceutical compositions containing the same and method of using the same” (Kanebo, Ltd., priority 1982, dated 1984).

Entries after “also recorded” stand apart in the source; their conditions may differ.

In general, LD50 refers to the dose at which mortality reaches 50%. Read a low LD50 as greater toxicity.

For one data set, the system named is dogs. Put plainly: Increase in coronary blood flow upon intravenous administration into dogs. The class given is in vivo, dog. As to conditions: for Increase in coronary blood flow (Δ% ± standard error): anaesthetized dogs, intravenous (femoral vein), dose 0.1 mg/kg, circumflex branch of left coronary; for activity in increasing coronary blood flow (in words): comparison with other esters. As to the method:
(b) Intravenous administration into dogs.
Increase in coronary blood flow upon intravenous administration of a test compound into dogs was tested. Compounds tested were 4-(benzothiazol-2-yl)benzylphosphonic acid ethyl isopropyl ester and, as a control, diltiazem, 4-(benzothiazol-2-yl)benzylphosphonic acid diethyl ester and 2-(benzothiazol-2-yl)-5-picolinylphosphonic acid diethyl ester.
Dogs weighing 10 to 13 kg were anaesthetized with pentobarbital sodium (35 mg/kg, intraperitoneal) and, under supportive respiration, a thoractomy was performed by removing the fourth left rib. The pericardial membrane was then incised to expose the heart. The test compound was dissolved in 50% aqueous ethanol and injected into the femoral vein. The blood flow through circumflex branch of left coronary was measured before and after the administration of drugs with an electromagnetic flowmeter (Nihon Kohden, MF-26).

In a further data set the test system is male ddY mice. Nature of the data set: Acute toxicity test in mice. As to conditions: mouse, in vivo; listed as compound of the invention. As to the method: (§1) An acute toxicity test was carried out in male ddY mice (in groups of 5 animals, body weights 20.congruent.2 g) by the intraperitoneal administration of a test compound. The LD50 values were calculated by the method of Weil based on the number of deaths within 72 hours.

The nature of data set [1]: Acute toxicity test in mice. The note with it: mouse, in vivo, ip; male ddY mice, intraperitoneal; deaths within 72 hours, method of Weil. As to the method:
as §1

The subject of data set [2] is isolated guinea pig heart. Nature of the data set: Action on coronary flow of the isolated guinea pig heart (Langendorff). As to conditions: Cavia porcellus, 100 γ/ml in propylene glycol, 0.1 ml infused at 0.1 ml/min, read-out: Increase in coronary flow (Δ% ± standard error). The protocol: (a) Action on the isolated guinea pig heart.
Male guinea-pigs with body weights from 400 to 500 g were slaughtered and promptly thoractomized. After the ascending aorta was cannulated, the heart was enucleated. By the method of Langendorff, this isolated heart was perfused with the Krebs-Henseleit fluid oxygenated with a gaseous mixture of 95% O2 and 5% CO2 at the fluid temperature of 34±1° C. and the perfusion pressure of 60 cm H2 O, and the test compound was infused. The coronary flows before and after infusion were measured and the percent gain in coronary flow was obtained. The coronary flow was measured with a square-wave electromagnetic flowmeter (Nihon Kohden, MF-26) with an extracorporeal probe (Nihon Kohden, FE) set at the top of the cannula and recorded with a multipurpose polygraph (Nihon Kohden, RM-85). The test compound was dissolved in propylene glycol to a concentration of 100 γ/ml and 0.1 ml of the solution was infused at the rate of 0.1 ml/min. For reference, the corresponding data on diltiazem is also shown.

Turning to `CCOP(=O)(Cc1ccc(-c2nc3ccccc3s2)nc1)OCC` [2-(benzothiazol-2-yl)-5-picolinylphosphonic acid diethyl ester, reference compound], in the data set on dogs, the “Increase in coronary blood flow (Δ% ± standard error)” value (“Increase … (Δ% ± standard error)” for short) is listed as 83.0 ± 12.3 Δ%.
The same measure, in the same setting: the figure for `CCOP(=O)(Cc1ccc(-c2nc3ccccc3s2)cc1)OCC` [4-(benzothiazol-2-yl)benzylphosphonic acid diethyl ester, reference compound] is 82.2 ± 5.0 Δ%.
As for `CCOP(=O)(Cc1ccc(-c2nc3ccccc3s2)cc1)OC(C)C` (centres unmarked) [4-(benzothiazol-2-yl)benzylphosphonic acid isopropyl ethyl ester], in the data set with male ddY mice, the “acute toxicity (in words)” value was “low acute toxicity; also recorded: lower acute toxicity than such compound”. In data set [1], this compound yielded an LD50 at 72 h of 1790 mg/kg. The “Increase … (Δ% ± standard error)” value in the data set with dogs is 75.3 ± 2.9 Δ%. Moreover, the “activity in increasing coronary blood flow (in words)” value was “high activity in increasing coronary blood flow in comparison with other asymmetric and cyclic esters of this type” in the data set with dogs (listed as asymmetric type ester of the invention); “somewhat lower in its activity of increasing coronary blood flow than the corresponding diethyl ester compound” in the data set with dogs (listed as compound of the invention). Further, in data set [2], the activation at 100 µg/mL, 0.01 mg came out at 76.9 ± 24.4%.
As for `COc1ccc([C@@H]2Sc3ccccc3N(CCN(C)C)C(=O)[C@@H]2OC(C)=O)cc1` [Diltiazem, diltiazem, reference compound], the 50% lethal dose (LD50) at 72 h in data set [1] was determined as 177 mg/kg. Further, the “Increase … (Δ% ± standard error)” value in the data set with dogs is given as 105.6 ± 14.1 Δ%. The activation at 100 µg/mL, 0.01 mg in data set [2] was determined as 66 ± 7.1%.
